Measurements published in patent US10548856B2, “Compounds and methods for modulating serotonin receptors in the periphery” (Northeastern University, priority 2015, dated 2020).
Like-named read-outs stand apart in the source and are kept apart here.

How the values were obtained:
Human 5-HT7 = molecular target: T1, Human 5-HT7 (Homo sapiens, UniProt P34969); experiment: In vitro binding affinity to serotonin 5-HT7 receptors using HEK293 cells
T1 construct: expressed in transfected cells; host or cells: HEK293
T1 sequence (P34969 1-445 isoform P34969-2): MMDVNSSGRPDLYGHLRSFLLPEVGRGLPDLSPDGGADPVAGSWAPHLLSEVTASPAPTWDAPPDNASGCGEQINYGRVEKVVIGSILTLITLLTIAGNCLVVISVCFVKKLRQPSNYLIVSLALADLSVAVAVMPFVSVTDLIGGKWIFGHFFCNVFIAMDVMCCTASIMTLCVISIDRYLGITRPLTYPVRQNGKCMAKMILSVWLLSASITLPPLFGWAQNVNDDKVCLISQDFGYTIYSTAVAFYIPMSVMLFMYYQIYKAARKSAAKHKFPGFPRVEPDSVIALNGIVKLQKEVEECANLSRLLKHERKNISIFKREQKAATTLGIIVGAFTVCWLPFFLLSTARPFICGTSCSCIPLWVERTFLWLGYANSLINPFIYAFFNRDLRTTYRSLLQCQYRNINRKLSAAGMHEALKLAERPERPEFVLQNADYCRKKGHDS
From the text: 2015, 6, 1259-1270. The compounds are tertiary amines and available to bind 5-HT7 receptors both in the brain and in the periphery. Each of the compounds can be derivatized to a corresponding positively-charged quaternary amine, for example, by the addition of a third alkyl group, R3, to render it impermeable to the blood-brain barrier and specific for peripheral 5-HT7 receptors.

[1] = Plasma and brain concentrations after subcutaneous administration (LC-MS/MS); type: in vivo, C57Bl/6J mice; conditions: for concentration at 30 min / concentration at 60 min / concentration at 90 min: male, C57Bl/6J, mouse, 3.0 mg/kg subcutaneous, mice, mean (SEM); for concentration at 30 min: 30 min after injection; for concentration at 60 min: 60 min after injection; for concentration at 90 min: 90 min after injection
Experimental: At 30, 60, or 90 min later, mice were euthanized by rapid cervical dislocation and decapitation. Trunk blood was collected in pre-chilled, heparin-coated tubes. Brains were quickly excised and frozen in liquid nitrogen. Plasma was collected from blood after centrifugation for 5 min at 13,000 g. Whole brain samples were wrapped in foil, and brain and plasma samples were labeled and stored at −80° C. until liquid chromatography-mass spectrometry/mass spectrometry (LC-MS/MS) assays were performed. Frozen brain samples were weighed and homogenized in phosphate buffered saline (PBS), pH 7.4. After the first analysis, the extra brain homogenate was stored at −80° C. until they were thawed for a second, more dilute, analysis. Plasma samples were used directly upon arrival. The proteins from each plasma sample and a portion of each brain homogenate were immediately precipitated with 1:1 methanol:acetonitrile (4× starting volume) and internal standard ((−)-MBP^68) followed by centrifugation at 14,000 g for 5 minutes at 4° C. The resulting supernatants from each sample were dried under nitrogen. Each sample was reconstituted in methanol, vortexed, sonicated briefly, and centrifuged prior to LC-MS/MS analysis. Calibration curves were constructed from the ratios of the peak areas of 5-FPT versus (−)-MBP in extracted standards made in mouse plasma or homogenized mouse brain.
LC-MS/MS analysis was performed using an Agilent 1100 series HPLC and a Thermo Finnigan Quantum Ultra triple quad mass spectrometer. The mobile phases used were 0.1% formic acid in water (A) and 0.1% formic acid in methanol (B) in a 5 minute gradient. Samples of 10 μL each were injected onto a Phenomenex Gemini C18 column (2×50 mm, 5μ) with a C18 guard column. 5-FPT and its internal standard ((−)-MBP) were ionized in ESI+ and detected in SRM mode. Internal standards were used for quantification of the compound level per g tissue or per μL plasma. Four mice were included per group, but plasma levels from one mouse were not detectable due to low volume of blood collected.

DOI HTR = experiment: Attenuation of the DOI HTR; type: in vivo; conditions: 5.6 mg/kg
[2] = brain, read-out: Brain concentration
[3] = plasma, read-out: Plasma concentration

Structure (SMILES): CN(C)[C@H]1CCc2c(cccc2-c2ccccc2)C1 [(S)-Methyl / Phenyl]
- Ki (Human 5-HT7): 9 ± 0.4 nM

Structure (SMILES): CN(C)[C@@H]1CCc2c(cccc2-c2ccccc2F)C1 [(R)-Methyl / Phenyl-2′-F]
- Ki (Human 5-HT7): 260 ± 53 nM

Structure (SMILES): CCCN(CCC)[C@H]1CCc2c(cccc2-c2ccccc2F)C1 [(S)-Propyl / 2′-F-Phenyl]
- Ki (Human 5-HT7): 35 ± 5.2 nM

Structure (SMILES): CN(C)C1CCc2c(cccc2-c2ccccc2F)C1 (single isomer, unassigned; (+)) [(+)-5-FPT, 5-(2′-fluorophenyl)-N,N-dimethyl-1,2,3,4-tetrahydronaphthalen-2-amine]
- Blood-brain barrier crossing ([1]; 30, 60 and 90 min after systemic administration): readily crosses the blood-brain barrier
- Clearance in the periphery (plasma relative to brain levels) ([1]; as soon as 30 min post-administration): rapidly cleared in the periphery
- concentration at 30 min [1, 2]: 1780 ng/g
- concentration at 60 min [1, 2]: 2160 ng/g
- concentration at 90 min [1, 2]: 1460 ng/g
- concentration at 30 min [1, 3]: 114 ng/mL
- concentration at 60 min [1, 3]: 118 ng/mL
- concentration at 90 min [1, 3]: 70 ng/mL
- Time for which attenuating effect on the DOI HTR remained significant (DOI HTR): up to 2 hrs
- Block of the DOI HTR (DOI HTR; 3 hrs. post-administration): did not block the DOI HTR

Structure (SMILES): CN(C)C1CCc2c(cccc2-c2ccc(F)cc2Cl)C1 (racemic) [(R/S)-Methyl / Phenyl-2′-Cl-4′-F]
- Ki (Human 5-HT7): 30 ± 10 nM

Structure (SMILES): CCCN(CCC)[C@H]1CCc2c(cccc2-c2ccccc2)C1 [(S)-Propyl / Phenyl]
- Ki (Human 5-HT7): 83 ± 5.8 nM

Structure (SMILES): CN(C)[C@H]1CCc2c(cccc2-c2cc(C(F)(F)F)cc(C(F)(F)F)c2)C1 [(S)-Methyl / Phenyl-3′,5′-CF3]
- Ki (Human 5-HT7): 910 ± 260 nM

Structure (SMILES): CN(C)C1CCc2c(cccc2-c2cccc(Cl)c2)C1 (racemic) [(R/S)-Methyl / Phenyl-3′-Cl]
- Ki (Human 5-HT7): 18 ± 2.4 nM

Structure (SMILES): CN(C)[C@@H]1CCc2c(cccc2-c2ccccc2Cl)C1 [(R)-Methyl / Phenyl-2′-Cl]
- Ki (Human 5-HT7): 58 ± 12 nM

Structure (SMILES): CN(C)C1CCc2c(cccc2-c2cccc(F)c2)C1 (racemic) [(R/S)-Methyl / Phenyl-3′-F]
- Ki (Human 5-HT7): 34 ± 6.2 nM

Structure (SMILES): CCCN(CCC)[C@@H]1CCc2c(cccc2-c2ccccc2)C1 [(R)-Propyl / Phenyl]
- Ki (Human 5-HT7): 180 ± 31 nM

Structure (SMILES): CN(C)[C@H]1CCc2c(cccc2-c2ccccc2F)C1 [(S)-Methyl / Phenyl-2′-F]
- Ki (Human 5-HT7): 6 ± 0.7 nM

Structure (SMILES): CN(C)[C@H]1CCc2c(cccc2-c2ccc(Cl)cc2)C1 [(S)-Methyl / Pheny-4′-Cl]
- Ki (Human 5-HT7): 72 ± 5.8 nM

Structure (SMILES): CN(C)[C@H]1CCc2c(cccc2-c2ccccc2Cl)C1 [(S)-Methyl / Phenyl-2′-Cl]
- Ki (Human 5-HT7): 6 ± 0.6 nM

Structure (SMILES): CN(C)C1CCc2c(cccc2-c2cc(F)cc(F)c2)C1 (racemic) [(R/S)-Methyl / Phenyl-3′,5′-F]
- Ki (Human 5-HT7): 180 ± 32 nM

Structure (SMILES): CN(C)C1CCc2c(cccc2-c2cccc(C(F)(F)F)c2)C1 (racemic) [(R/S)-Methyl / Phenyl-3′-CF3]
- Ki (Human 5-HT7): 63 ± 6.6 nM

Structure (SMILES): COc1cc(-c2ccccc2)c2c(c1OC)CC(N(C)C)CC2 (racemic) [(R/S)-Methyl / 7,8-diOMe-5-Phenyl]
- Ki (Human 5-HT7): > 10000 nM

Structure (SMILES): CN(C)[C@@H]1CCc2c(cccc2-c2ccccc2)C1 [(R)-Methyl / Phenyl]
- Ki (Human 5-HT7): 4400 ± 930 nM

Structure (SMILES): COc1cccc(-c2cccc3c2CCC(N(C)C)C3)c1 (racemic) [(R/S)-Methyl / Phenyl-3′-OMe]
- Ki (Human 5-HT7): 37 ± 9 nM

Structure (SMILES): CN(C)C1CCc2c(cccc2C2CCCC2)C1 (racemic) [(R/S)-Methyl / Cyclopentyl]
- Ki (Human 5-HT7): 240 ± 35 nM

Structure (SMILES): CCCN(CCC)[C@@H]1CCc2c(cccc2-c2ccccc2F)C1 [(R)-Propyl / 2′-F-Phenyl]
- Ki (Human 5-HT7): 63 ± 2.7 nM

Structure (SMILES): CN(C)C1CCc2c(cccc2-c2ccc(F)cc2)C1 (racemic) [(R/S)-Methyl / Phenyl-4′-F]
- Ki (Human 5-HT7): 120 ± 17 nM

Structure (SMILES): CN(C)C1CCc2c(cccc2OCc2ccccc2)C1 (racemic) [(R/S)-Methyl / O-Benzyl]
- Ki (Human 5-HT7): > 10000 nM

Structure (SMILES): CN(C)C1CCc2c(cccc2-c2cc(Cl)cc(Cl)c2)C1 (racemic) [(R/S)-Methyl / Phenyl-3′,5′-Cl]
- Ki (Human 5-HT7): 40 ± 60 nM
